Measured values reported in US12194040B2, “FAK inhibitor and drug combination thereof” (HINOVA PHARMACEUTICALS INC., priority 2018, dated 2025).
pIC50: −log10 of the molar value.

Experiments:
FAK enzyme = FAK enzyme (Homo sapiens, UniProt Q05397); test: Inhibitory activity on FAK enzyme (HTRF, Sa-XL665 / TK antibody-Eu3+); type: biochemical
Method: By referring to literature methods (Cancer Res. 2008, 68, 1935), the experiment of inhibitory activity on FAX enzyme was carried out. The details are as follows: the test compound was diluted to 1000 nM, and then subjected to 1:3 serial dilution with DMSO. 0.1 L of the solution was transferred into a 384-well plate, and 2 replicate wells were set up for each concentration. 5 µL of 2 FAK enzyme solution was added, then centrifuged at 1000 rpm for 1 min, and incubated at 25° C. for 15 min. 5 L of 2× substrate solution was added and incubate at 25° C. for 60 min. Then, 5 µL of Sa-XL665 solution and 5 μL of TK antibody-Eu3+ were added, and centrifuged at 1000 rpm for 1 min, then incubated at 25° C. for 60 min. Finally, Envision 2104 plate reader was used to read the fluorescence signal, and calculate the half inhibitory concentration IC50 of each compound on FAX enzyme.

PAN-02 tumor model = test: Pharmacodynamic experiment on PAN02 tumor animal model; type: in vivo, C57BL/6 mice; conditions: PAN-02, group 4: compound 44 25 mg/kg i.g. BID; 33 days
Excerpt: The PAN-02 cells in the logarithmic growth phase were collected, washed twice with PBS, and then resuspended in pre-cooled PBS for inoculation. The experimental animals were C57BL/6 mice, females, purchased from Beijing Vital River Experimental Animal Technology Co., Ltd. C57BL/6 mice were adapted to the laboratory environment for 3 days. PAN-02 cells were subcutaneously inoculated into the right ribs, and the amount of cells inoculated was 1×10^6/mouse. When the tumor grew to about 100 mm^3, they will be screened and randomly grouped. Each group included 8 mice. According to Table 4, mice were grouped and administrated as the dosing regimen. The day of grouping and administration was defined as day 1, and the administration period was 33 days.

MC38 tumor model = test: Pharmacodynamic experiment on MC38 tumor animal model; type: in vivo, C57BL/6 mice; conditions: MC38, group 4: compound 44 50 mg/kg p.o. QD × 21; day 18
Method: Cell culture: MC-38 cells are cultured in DMEM medium containing 10% fetal bovine serum (FBS). MC-38 cells in logarithmic growth phase were collected, and resuspended in HBSS to a concentration suitable for subcutaneous tumor inoculation in C57BL/6 mice.
Experimental animals: C57BL/6 mice, female, 6-8 weeks old, weighing about 18-20 g, 96 mice, purchased from Beijing Vital River Experimental Animal Technology Co., Ltd.
Tumor cell inoculation: Tumor cells in logarithmic growth phase were collected, and the cell concentration was adjusted to 5×10^6/mL with HBSS, then 0.1 mL was subcutaneously inoculated on the right side of each mouse near the back, that is, 5×10^5/mouse. Then, the tumor volume was observed and measured. When the average tumor volume of the mice grew to 50-100 mm^3, the tumor-bearing mice were randomly grouped according to the tumor volume and administered. The detailed information was shown in Table 3, and the day of grouping and administration was defined as day 0.
Calculation of tumor volume: The mice were sacrificed on the 18th day, the tumor was taken out, the tumor volume was measured, and the tumor inhibition rate of each group was calculated.

[1] = Pharmacokinetic test in rats (PO, 10 mpk); type: in vivo; conditions: male SD rats, PO (gavage), plasma
Method: An appropriate amount of test drug (10 mg) was accurately weighed, and 0.25 ml of N,N-dimethylacetamide (DMA) was first added to dissolve it, then 0.5% sodium carboxymethyl cellulose (CMC-Na) was slowly added to 5 ml. The mixture was sonicated, vortexed, and mixed well. 0.2 ml of the final solution prepared above was taken out and stored at −20° C. for the concentration determination.
After fasted overnight (free drinking water), three healthy adult male SD rats (180-250 g, purchased from Chengdu Dossy Experimental Animal Co., Ltd.) were administered by gavaging with a volume of 5 ml/kg; Prior to administration, as well as 0.5 h, 1 h, 2 h, 4 h, 6 h, 8 h, 12 h, 24 h after administration, 0.1 ml of blood was collected from the retroorbital venous plexus, centrifuged at 4° C. for 5 min to separate the plasma, and stored at −20° C. for testing. Then, LC/MS/MS method was used to determine the concentration of the test compound in the plasma.

FAK enzyme, sequence (Q05397 whole entry, species assumed): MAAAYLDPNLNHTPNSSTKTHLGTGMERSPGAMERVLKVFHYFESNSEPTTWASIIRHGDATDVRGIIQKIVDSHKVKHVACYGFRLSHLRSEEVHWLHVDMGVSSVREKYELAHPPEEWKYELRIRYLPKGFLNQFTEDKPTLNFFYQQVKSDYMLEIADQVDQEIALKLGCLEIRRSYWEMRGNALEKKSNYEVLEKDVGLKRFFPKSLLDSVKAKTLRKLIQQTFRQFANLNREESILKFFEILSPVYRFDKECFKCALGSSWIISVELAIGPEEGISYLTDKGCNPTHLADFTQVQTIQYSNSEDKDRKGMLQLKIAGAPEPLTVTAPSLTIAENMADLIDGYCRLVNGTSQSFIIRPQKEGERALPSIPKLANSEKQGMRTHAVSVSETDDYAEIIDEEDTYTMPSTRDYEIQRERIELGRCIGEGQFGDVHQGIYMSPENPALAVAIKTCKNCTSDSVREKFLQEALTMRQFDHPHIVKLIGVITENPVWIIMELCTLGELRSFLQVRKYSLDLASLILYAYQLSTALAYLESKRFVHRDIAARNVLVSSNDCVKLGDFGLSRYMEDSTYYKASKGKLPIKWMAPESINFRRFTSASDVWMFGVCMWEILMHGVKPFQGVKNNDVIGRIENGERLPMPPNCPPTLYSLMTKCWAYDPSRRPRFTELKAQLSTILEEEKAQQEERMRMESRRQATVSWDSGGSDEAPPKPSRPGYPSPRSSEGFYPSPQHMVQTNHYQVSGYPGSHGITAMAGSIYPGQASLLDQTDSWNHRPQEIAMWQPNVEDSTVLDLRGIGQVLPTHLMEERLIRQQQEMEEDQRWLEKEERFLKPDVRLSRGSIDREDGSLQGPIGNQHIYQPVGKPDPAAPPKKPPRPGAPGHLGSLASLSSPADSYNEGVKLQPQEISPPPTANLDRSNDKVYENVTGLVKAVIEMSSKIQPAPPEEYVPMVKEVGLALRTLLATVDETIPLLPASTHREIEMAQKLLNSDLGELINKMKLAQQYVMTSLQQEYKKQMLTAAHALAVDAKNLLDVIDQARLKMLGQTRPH

Work on “N-deuteromethyl-4-((4-(((3-(N-deuteromethanesulfonamido) pyrazin-2-yl)deuteromethyl)amino)-5-(trifluoromethyl)pyrimidine-2-yl)amino)benzamide [Compound 45]” yielded a pIC50 (FAK enzyme) of 9.82.

For `[2H]C([2H])([2H])NC(=O)c1ccc(Nc2ncc(C(F)(F)F)c(NCc3nccnc3N(C([2H])([2H])[2H])S(C)(=O)=O)n2)cc1` [Compound 44, N-trideuteromethyl-4-((4-(((3-(N-trideuteromethylmethanesulfonamido)pyrazin-2-yl)methyl)amino)-5-(trifluoromethyl)pyrimidin-2-yl)amino)benzamide], the Tumor inhibition rate (PAN-02 tumor model) was 66% and the Tumor inhibition rate (MC38 tumor model) was 26.9%.

With `[2H]C([2H])([2H])NC(=O)c1ccc(Nc2ncc(C(F)(F)F)c(NCc3nccnc3N(C)S(C)(=O)=O)n2)cc1` [Compound 25, N-trideuteromethyl-4-((4-(((3-(N-methanesulfonamido)pyrazin-2-yl)methyl)amino)-5-(trifluoromethyl)pyrimidin-2-yl)amino)benzamide] the “half life t1/2” value [1] was 1.75 h.
